# Experimental data from patent US11390616B2 (BRISTOL-MYERS SQUIBB COMPANY, priority 2015, dated 2022).
# Molecular target: T1, human APJ receptor (Homo sapiens, UniProt P35414)
# T1 construct: expressed in transfected cells; host or cells: HEK293
# T1 sequence (P35414 1-380): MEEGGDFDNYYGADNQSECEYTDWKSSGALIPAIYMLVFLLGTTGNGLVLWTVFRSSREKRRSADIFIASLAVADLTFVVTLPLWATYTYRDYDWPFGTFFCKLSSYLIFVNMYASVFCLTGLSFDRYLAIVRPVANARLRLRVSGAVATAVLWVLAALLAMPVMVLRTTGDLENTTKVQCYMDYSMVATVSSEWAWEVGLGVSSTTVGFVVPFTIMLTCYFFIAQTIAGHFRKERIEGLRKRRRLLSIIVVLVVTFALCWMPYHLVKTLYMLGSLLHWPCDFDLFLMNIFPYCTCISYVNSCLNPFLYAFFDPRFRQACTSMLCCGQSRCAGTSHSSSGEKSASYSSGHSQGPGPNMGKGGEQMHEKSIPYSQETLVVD
# Experiment: Intracellular cAMP accumulation assay (APJ hcAMP, HTRF)
# Type: cell-based
# Conditions: HEK293 cells stably expressing human APJ receptor; inhibition of forskolin-mediated cAMP production; read-out: APJ cAMP Potency range
# Protocol: Intracellular cAMP Accumulation Assay
# HEK293 cells stably expressing human APJ receptor were used to assess the activity of compounds. Cultured cells were detached and resuspended in the cAMP Homogeneous Time-Resolved Fluorescence (HTRF) assay buffer (Cisbio cat; #62AM4PEJ). The assay was performed in 384-well assay plates (Perkin-Elmer; cat #6008289) according to assay protocol provided by the manufacturer. Serial dilutions of a compound together with assay buffer containing […] IBMX and 2 μM forskolin were added to each well containing 5,000 cells and incubated for 30 minutes at room temperature. Subsequently, cAMP D2 reagent was added in the lysis buffer followed by the EuK antibody (Cisbio; cat #62AM4PEJ) and incubated for 60 min. The fluorescence emission ratio was measured using fluorometer. The intracellular cAMP concentrations (compound-stimulated inhibition of forskolin-mediated cAMP production) were calculated by extrapolation from a standard curve using known cAMP concentrations. The EC50 values were obtained by fitting the data to a sigmoidal concentration-response curve with variable slope. The maximal achievable inhibition of forskolin-induced cAMP levels (Ymax) for each compound was expressed as relative percentage of inhibition attained using pyroglutamated apelin-13 ((Pyr1)apelin-13) peptide, which was set to 100%.
# The examples disclosed below were tested in the APJ in vitro assays described above and were found having human APJ cyclic AMP (hcAMP) activity. The EC50 value of each compound is presented at the end of the example description.
# The biological activity of the exemplified compounds of this invention determined by the assay described above is shown at the end of each example.
row,EC50,Compound
1,0.01 to 10 nM,"COc1cccc(OC)c1-n1c(CCC(C)C)nc(O)c(Cc2ccc(-n3cc(F)ccc3=O)cc2)c1=O [Example 52, 3-(2,6-dimethoxyphenyl)-5-{[4-(5-fluoro-2-oxo-1,2-dihydropyridin-1-yl)phenyl]methyl}-6-hydroxy-2-(3-methylbutyl)-3,4-dihydropyrimidin-4-one]"
2,0.01 to 10 nM,"COc1cccc(OC)c1-n1c(CCC(C)C)nc(O)c(Cc2ccc(-n3cc(Cl)ccc3=O)cc2)c1=O [Example 53, 5-{[4-(5-chloro-2-oxo-1,2-dihydropyridin-1-yl)phenyl]methyl}-3-(2,6-dimethoxyphenyl)-6-hydroxy-2-(3-methylbutyl)-3,4-dihydropyrimidin-4-one]"
3,0.01 to 10 nM,"COc1cccc(OC)c1-n1c(CCC(C)C)nc(O)c(Cc2ccc(-n3cc(C)ccc3=O)cc2)c1=O [Example 54, 3-(2,6-dimethoxyphenyl)-6-hydroxy-5-{[4-(5-methyl-2-oxo-1,2-dihydropyridin-1-yl)phenyl]methyl}-2-(3-methylbutyl)-3,4-dihydropyrimidin-4-one]"
4,0.01 to 10 nM,"COc1cccc(OC)c1-n1c(CCC2CC2)nc(O)c(Cc2ccc(-n3cc(C)ccc3=O)cc2)c1=O [Example 55, 2-(2-cyclopropylethyl)-3-(2,6-dimethoxyphenyl)-6-hydroxy-5-{[4-(5-methyl-2-oxo-1,2-dihydropyridin-1-yl)phenyl]methyl}-3,4-dihydropyrimidin-4-one]"
5,0.01 to 10 nM,"COc1cccc(OC)c1-n1c(CCC2CC2)nc(O)c(Cc2ccc(-n3cc(F)ccc3=O)cc2)c1=O [Example 56, 2-(2-cyclopropylethyl)-3-(2,6-dimethoxyphenyl)-5-{[4-(5-fluoro-2-oxo-1,2-dihydropyridin-1-yl)phenyl]methyl}-6-hydroxy-3,4-dihydropyrimidin-4-one]"
6,0.01 to 10 nM,"COc1cccc(OC)c1-n1c(CCC2CC2)nc(O)c(Cc2ccc(-n3cc(Cl)ccc3=O)cc2)c1=O [Example 57, 5-{[4-(5-chloro-2-oxo-1,2-dihydropyridin-1-yl)phenyl]methyl}-2-(2-cyclopropylethyl)-3-(2,6-dimethoxyphenyl)-6-hydroxy-3,4-dihydropyrimidin-4-one]"
7,0.01 to 10 nM,"COc1cccc(OC)c1-n1c(COC(C)C)nc(O)c(Cc2ccc(-n3cc(C)ccc3=O)cc2)c1=O [Example 58, 3-(2,6-dimethoxyphenyl)-6-hydroxy-5-{[4-(5-methyl-2-oxo-1,2-dihydropyridin-1-yl)phenyl]methyl}-2-[(propan-2-yloxy)methyl]-3,4-dihydropyrimidin-4-one]"
8,0.01 to 10 nM,"COc1cccc(OC)c1-n1c(COC(C)C)nc(O)c(Cc2ccc(-n3cc(F)ccc3=O)cc2)c1=O [Example 59, 3-(2,6-dimethoxyphenyl)-5-{[4-(5-fluoro-2-oxo-1,2-dihydropyridin-1-yl)phenyl]methyl}-6-hydroxy-2-[(propan-2-yloxy)methyl]-3,4-dihydropyrimidin-4-one]"
9,0.01 to 10 nM,"COc1cccc(OC)c1-n1c(COC(C)C)nc(O)c(Cc2ccc(-n3cc(Cl)ccc3=O)cc2)c1=O [Example 60, 5-{[4-(5-chloro-2-oxo-1,2-dihydropyridin-1-yl)phenyl]methyl}-3-(2,6-dimethoxyphenyl)-6-hydroxy-2-[(propan-2-yloxy)methyl]-3,4-dihydropyrimidin-4-one]"
10,0.01 to 10 nM,"CCn1ccc(-c2nc(=O)c(Cc3ccc(-c4ccncc4C)cc3)c(O)n2-c2c(OC)cccc2OC)n1 [Example 62, 1-(2,6-dimethoxyphenyl)-2-(1-ethyl-1H-pyrazol-3-yl)-6-hydroxy-5-{[4-(3-methylpyridin-4-yl)phenyl]methyl}-1,4-dihydropyrimidin-4-one]"
11,0.01 to 10 nM,"CCn1ccc(-c2nc(=O)c(Cc3ccc(-c4ccnc(F)c4C)cc3)c(O)n2-c2c(OC)cccc2OC)n1 [Example 63, 1-(2,6-dimethoxyphenyl)-2-(1-ethyl-1H-pyrazol-3-yl)-5-{[4-(2-fluoro-3-methylpyridin-4-yl)phenyl]methyl}-6-hydroxy-1,4-dihydropyrimidin-4-one]"
12,0.01 to 10 nM,"CCCCc1nc(=O)c(Cc2ccc(-c3ccc(F)nc3C)cc2)c(O)n1-c1c(CC)cccc1CC [Example 64, 2-butyl-1-(2,6-diethylphenyl)-5-{[4-(6-fluoro-2-methylpyridin-3-yl)phenyl]methyl}-6-hydroxy-1,4-dihydropyrimidin-4-one]"
13,0.01 to 10 nM,"CCCCc1nc(=O)c(Cc2ccc(-c3ccc(F)nc3)cc2)c(O)n1-c1c(CC)cccc1CC [Example 65, 2-butyl-1-(2,6-diethylphenyl)-5-{[4-(6-fluoropyridin-3-yl)phenyl]methyl}-6-hydroxy-1,4-dihydropyrimidin-4-one]"
14,0.01 to 10 nM,"CCCCc1nc(=O)c(Cc2ccc(-c3ccnc(F)c3C)cc2)c(O)n1-c1c(CC)cccc1CC [Example 66, 2-butyl-1-(2,6-diethylphenyl)-5-{[4-(2-fluoro-3-methylpyridin-4-yl)phenyl]methyl}-6-hydroxy-1,4-dihydropyrimidin-4-one]"
15,0.01 to 10 nM,"CCCCc1nc(=O)c(Cc2ccc(C3CC3)cc2)c(O)n1-c1c(CC)cccc1CC [Example 67, 2-butyl-5-[(4-cyclopropylphenyl)methyl]-1-(2,6-diethylphenyl)-6-hydroxy-1,4-dihydropyrimidin-4-one]"
16,10 to 100 nM,"CCCCc1nc(=O)c(Cc2ccc(-c3ccccc3)cc2)c(O)n1-c1c(CC)cccc1CC [Example 68, 5-({[1,1′-biphenyl]-4-yl}methyl)-2-butyl-1-(2,6-diethylphenyl)-6-hydroxy-1,4-dihydropyrimidin-4-one]"
17,0.01 to 10 nM,"CCc1cccc(CC)c1-n1c(-c2ccn(C)n2)nc(=O)c(Cc2ccc(-c3ccc(F)nc3C)c(F)c2)c1O [Example 69, 1-(2,6-diethylphenyl)-5-{[3-fluoro-4-(6-fluoro-2-methylpyridin-3-yl)phenyl]methyl}-6-hydroxy-2-(1-methyl-1H-pyrazol-3-yl)-1,4-dihydropyrimidin-4-one]"
18,0.01 to 10 nM,"CCc1cccc(CC)c1-n1c(-c2ccn(C)n2)nc(=O)c(Cc2ccc(-c3ccncc3C)c(F)c2)c1O [Example 70, 1-(2,6-diethylphenyl)-5-{[3-fluoro-4-(3-methylpyridin-4-yl)phenyl]methyl}-6-hydroxy-2-(1-methyl-1H-pyrazol-3-yl)-1,4-dihydropyrimidin-4-one]"
19,0.01 to 10 nM,"CCc1cccc(CC)c1-n1c(-c2ccn(C)n2)nc(=O)c(Cc2ccc(-c3ccnc(F)c3C)c(F)c2)c1O [Example 71, 1-(2,6-diethylphenyl)-5-{[3-fluoro-4-(2-fluoro-3-methylpyridin-4-yl)phenyl]methyl}-6-hydroxy-2-(1-methyl-1H-pyrazol-3-yl)-1,4-dihydropyrimidin-4-one]"
20,0.01 to 10 nM,"CCc1cccc(CC)c1-n1c(-c2csc(C)n2)nc(=O)c(Cc2ccc(-c3ccc(F)nc3C)c(F)c2)c1O [Example 72, 1-(2,6-diethylphenyl)-5-{[3-fluoro-4-(6-fluoro-2-methylpyridin-3-yl)phenyl]methyl}-6-hydroxy-2-(2-methyl-1,3-thiazol-4-yl)-1,4-dihydropyrimidin-4-one]"
21,0.01 to 10 nM,"CCc1cccc(CC)c1-n1c(-c2nc(C)cs2)nc(=O)c(Cc2ccc(-c3ccnc(F)c3C)c(F)c2)c1O [Example 73, 1-(2,6-diethylphenyl)-5-{[3-fluoro-4-(2-fluoro-3-methylpyridin-4-yl)phenyl]methyl}-6-hydroxy-2-(4-methyl-1,3-thiazol-2-yl)-1,4-dihydropyrimidin-4-one]"
22,0.01 to 10 nM,"CCc1cccc(CC)c1-n1c(-c2csc(C)n2)nc(=O)c(Cc2ccc(-c3ccncc3C)c(F)c2)c1O [Example 74, 1-(2,6-diethylphenyl)-5-{[3-fluoro-4-(3-methylpyridin-4-yl)phenyl]methyl}-6-hydroxy-2-(2-methyl-1,3-thiazol-4-yl)-1,4-dihydropyrimidin-4-one]"
23,0.01 to 10 nM,"CCc1cccc(CC)c1-n1c(-c2nc(C)cs2)nc(=O)c(Cc2ccc(-c3ccncc3C)c(F)c2)c1O [Example 75, 1-(2,6-diethylphenyl)-5-{[3-fluoro-4-(3-methylpyridin-4-yl)phenyl]methyl}-6-hydroxy-2-(4-methyl-1,3-thiazol-2-yl)-1,4-dihydropyrimidin-4-one]"

# Same assay, conditions: HEK293 cells stably expressing human APJ receptor; inhibition of forskolin-mediated cAMP production; read-out: Human APJ cAMP EC50 potency range
row,EC50,Compound
1,0.01 to 10 nM,"CCc1cccc(CC)c1-n1c(-c2ccn(C3CC3)n2)nc(=O)c(Cc2ccc(-c3ccnc(F)c3C)c(F)c2)c1O [Example 61, 2-(1-cyclopropyl-1H-pyrazol-3-yl)-1-(2,6-diethylphenyl)-5-(3-fluoro-4-(2-fluoro-3-methylpyridin-4-yl)benzyl)-6-hydroxypyrimidin-4(1H)-one]"
